Measured values as given in patent US20230416248A1, “COMPOUNDS AND USES THEREOF” (Foghorn Therapeutics Inc., priority 2020, published 2023).

Tests used:
[1] = molecular target: T1, BRM (Homo sapiens, UniProt P51531); assay: ATPase catalytic activity of BRM, ADP-Glo in vitro biochemical assay; conditions: for IC50: ADP-Glo ATPase assay, 30 nM BRM, 400 μM ATP; for Ratio* (BRG1 IC50 (μM) divided by BRM IC50 (μM)): selectivity ratio BRG1 IC50 / BRM IC50
T1 construct: made in house; host or cells: High Five insect cells
Description: (§1) The ATPase catalytic activity of BRM or BRG-1 was measured by an in vitro biochemical assay using ADP-Glo™ (Promega, V9102). The ADP-Glo™ kinase assay is performed in two steps once the reaction is complete. The first step is to deplete any unconsumed ATP in the reaction. The second step is to convert the reaction product ADP to ATP, which will be utilized by the luciferase to generate luminesce and be detected by a luminescence reader, such as Envision.
The assay reaction mixture ([…]) contains 30 nM of BRM or BRG-1, 20 nM salmon sperm DNA (from Invitrogen, UfraPure™ Salmon Sperm DNA Solution, cat #15632011), and 400 μM of ATP in the ATPase assay buffer, which comprises of 20 mM Tris, pH 8, 20 mM MgCl2, 50 mM NaCl, 0.1% Tween-20, and 1 mM fresh DTT (Piercer™ DTT (Dithiothreitol), cat #20290). The reaction is initiated by the addition of the 2.5 μL ATPase solution to 2.5 μL ATP/DNA solution on low volume white Proxiplate-384 plus plate (PerkinElmer, cat #6008280) and incubates at room temperature for 1 hour. Then, following addition of 5 μL of ADP-Glo™ Reagent provided in the kit, the reaction incubates at room temperature for 40 minutes. Then, 10 μL of Kinase Detection Reagent provided in the kit is added to convert ADP to ATP, and the reaction incubates at room temperature for 60 minutes. Finally, luminescence measurement is collected with a plate-reading luminometer, such as Envision.

[2] = molecular target: T2, BRG-1 (Homo sapiens, UniProt P51532); assay: ATPase catalytic activity of BRG-1, ADP-Glo in vitro biochemical assay; conditions: ADP-Glo ATPase assay, 30 nM BRG-1, 400 μM ATP; read-out: BRG1 IC50
T2 construct: made in house; host or cells: High Five insect cells
Description: as §1
Then, following addition of 5 μL of ADP-Glo™ Reagent provided in the kit, the reaction incubates at room temperature for 40 minutes. Then, 10 μL of Kinase Detection Reagent provided in the kit is added to convert ADP to ATP, and the reaction incubates at room temperature for 60 minutes. Finally, luminescence measurement is collected with a plate-reading luminometer, such as Envision.

T2 sequence (P51532 whole entry): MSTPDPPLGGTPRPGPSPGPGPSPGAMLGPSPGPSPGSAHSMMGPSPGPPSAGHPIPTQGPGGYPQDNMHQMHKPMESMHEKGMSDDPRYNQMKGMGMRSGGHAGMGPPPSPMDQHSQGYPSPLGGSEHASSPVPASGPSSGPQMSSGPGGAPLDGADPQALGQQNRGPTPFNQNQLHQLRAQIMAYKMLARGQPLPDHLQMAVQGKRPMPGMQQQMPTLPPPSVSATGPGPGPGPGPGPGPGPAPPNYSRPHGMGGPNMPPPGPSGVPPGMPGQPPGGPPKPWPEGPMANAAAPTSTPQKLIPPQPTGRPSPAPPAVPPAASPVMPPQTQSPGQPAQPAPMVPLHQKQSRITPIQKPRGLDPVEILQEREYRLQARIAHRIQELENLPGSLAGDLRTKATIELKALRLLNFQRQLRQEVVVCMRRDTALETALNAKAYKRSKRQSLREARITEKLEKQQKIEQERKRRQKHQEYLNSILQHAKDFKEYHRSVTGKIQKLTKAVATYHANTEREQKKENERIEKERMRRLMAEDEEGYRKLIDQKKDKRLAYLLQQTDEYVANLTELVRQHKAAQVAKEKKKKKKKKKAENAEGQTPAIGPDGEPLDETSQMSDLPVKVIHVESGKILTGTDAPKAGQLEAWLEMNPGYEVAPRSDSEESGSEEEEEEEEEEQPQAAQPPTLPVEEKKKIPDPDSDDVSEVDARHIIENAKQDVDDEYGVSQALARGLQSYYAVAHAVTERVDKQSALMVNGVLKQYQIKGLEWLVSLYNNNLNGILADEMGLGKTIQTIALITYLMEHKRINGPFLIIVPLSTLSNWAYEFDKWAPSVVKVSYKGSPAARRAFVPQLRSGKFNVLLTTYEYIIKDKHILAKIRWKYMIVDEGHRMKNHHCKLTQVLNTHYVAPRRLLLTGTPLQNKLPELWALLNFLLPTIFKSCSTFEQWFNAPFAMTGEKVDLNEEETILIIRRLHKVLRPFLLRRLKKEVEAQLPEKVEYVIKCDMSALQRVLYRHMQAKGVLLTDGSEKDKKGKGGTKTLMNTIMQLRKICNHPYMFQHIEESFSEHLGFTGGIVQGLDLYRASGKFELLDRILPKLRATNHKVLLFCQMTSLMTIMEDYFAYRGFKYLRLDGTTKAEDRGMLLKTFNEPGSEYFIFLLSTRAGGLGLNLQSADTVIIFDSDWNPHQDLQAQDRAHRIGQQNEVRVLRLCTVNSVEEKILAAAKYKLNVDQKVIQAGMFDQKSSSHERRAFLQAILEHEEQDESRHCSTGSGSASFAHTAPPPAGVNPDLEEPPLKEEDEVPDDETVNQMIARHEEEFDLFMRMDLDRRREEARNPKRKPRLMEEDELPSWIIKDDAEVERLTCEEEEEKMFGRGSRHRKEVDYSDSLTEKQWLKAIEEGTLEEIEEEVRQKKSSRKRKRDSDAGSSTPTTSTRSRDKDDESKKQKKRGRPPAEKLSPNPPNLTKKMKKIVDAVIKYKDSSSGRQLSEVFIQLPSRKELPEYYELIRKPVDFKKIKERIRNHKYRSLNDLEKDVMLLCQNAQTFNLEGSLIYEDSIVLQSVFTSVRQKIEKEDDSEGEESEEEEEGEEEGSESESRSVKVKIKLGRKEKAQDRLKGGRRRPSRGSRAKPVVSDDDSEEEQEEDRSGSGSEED
T1 sequence (P51531 whole entry): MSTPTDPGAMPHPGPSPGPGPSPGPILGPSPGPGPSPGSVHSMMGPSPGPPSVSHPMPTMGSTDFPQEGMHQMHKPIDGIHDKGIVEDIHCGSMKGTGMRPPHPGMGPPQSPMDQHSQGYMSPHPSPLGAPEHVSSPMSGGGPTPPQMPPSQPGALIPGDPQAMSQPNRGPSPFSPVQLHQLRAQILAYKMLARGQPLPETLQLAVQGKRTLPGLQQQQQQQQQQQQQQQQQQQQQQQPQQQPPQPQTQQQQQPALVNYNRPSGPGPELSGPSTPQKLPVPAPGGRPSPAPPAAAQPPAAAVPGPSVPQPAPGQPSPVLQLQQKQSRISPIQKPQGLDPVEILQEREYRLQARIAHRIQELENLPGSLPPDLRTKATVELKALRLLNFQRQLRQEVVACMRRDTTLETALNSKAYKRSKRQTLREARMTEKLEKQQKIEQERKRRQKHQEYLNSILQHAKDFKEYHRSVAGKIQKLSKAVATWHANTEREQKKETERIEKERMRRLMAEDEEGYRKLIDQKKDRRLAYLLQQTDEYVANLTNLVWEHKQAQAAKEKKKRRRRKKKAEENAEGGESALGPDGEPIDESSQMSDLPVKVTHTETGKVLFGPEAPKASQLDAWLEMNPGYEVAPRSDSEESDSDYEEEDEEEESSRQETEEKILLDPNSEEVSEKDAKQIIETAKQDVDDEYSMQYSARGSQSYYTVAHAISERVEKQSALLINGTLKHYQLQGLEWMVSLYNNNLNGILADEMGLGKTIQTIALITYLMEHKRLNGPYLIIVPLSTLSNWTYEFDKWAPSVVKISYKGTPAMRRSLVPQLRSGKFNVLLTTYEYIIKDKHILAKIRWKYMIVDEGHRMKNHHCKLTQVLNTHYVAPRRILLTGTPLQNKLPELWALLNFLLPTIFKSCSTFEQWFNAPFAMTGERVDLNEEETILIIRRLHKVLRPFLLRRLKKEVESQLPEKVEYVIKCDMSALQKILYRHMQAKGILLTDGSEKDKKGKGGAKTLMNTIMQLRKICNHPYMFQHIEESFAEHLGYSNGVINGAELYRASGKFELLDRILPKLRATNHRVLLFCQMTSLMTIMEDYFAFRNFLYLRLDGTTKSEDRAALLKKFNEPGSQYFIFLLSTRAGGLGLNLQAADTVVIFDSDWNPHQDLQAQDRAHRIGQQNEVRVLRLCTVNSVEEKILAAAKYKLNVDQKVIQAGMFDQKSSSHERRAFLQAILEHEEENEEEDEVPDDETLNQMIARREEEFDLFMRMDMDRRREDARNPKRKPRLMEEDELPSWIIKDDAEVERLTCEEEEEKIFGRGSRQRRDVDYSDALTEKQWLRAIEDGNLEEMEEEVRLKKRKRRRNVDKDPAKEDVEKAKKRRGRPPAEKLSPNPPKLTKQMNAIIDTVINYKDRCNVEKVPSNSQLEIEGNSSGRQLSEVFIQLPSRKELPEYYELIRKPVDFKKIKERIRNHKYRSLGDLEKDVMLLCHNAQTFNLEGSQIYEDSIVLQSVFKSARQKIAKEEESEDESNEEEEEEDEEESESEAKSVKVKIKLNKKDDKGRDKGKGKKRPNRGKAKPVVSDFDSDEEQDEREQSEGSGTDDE

| SMILES | IC50 [1] | Ratio* (BRG1 IC50 (μM) divided by BRM IC50 (μM)) [1] | IC50 [2] |
| --- | --- | --- | --- |
| CCc1cc(C(=O)NCc2cc3nc(-c4cccc(N5C[C@@H](C)O[C@@H](C)C5)n4)ccc3cn2)cc2c1COCCS2(=O)=O [Compound 59] | 73 nM | 10.68 | 780 nM |
| COC[C@@H](C)Nc1cccc(-c2ccc3cnc(CNC(=O)c4ccc(C(F)F)c(S(C)(=O)=O)c4)cc3n2)n1 [Compound 60] | 789 nM | 6.34 | 5000 nM |
| COC[C@H](C)Nc1cccc(-c2ccc3cnc(CNC(=O)c4ccc(C(F)F)c(S(C)(=O)=O)c4)cc3n2)n1 [Compound 61] | 956 nM | 5.23 | 5000 nM |
| CCN(CC)c1cccc(-c2ccc3cnc(CNC(=O)c4cc(F)c5c(c4)S(=O)(=O)CCOC5)cc3n2)n1 [Compound 62] | 18.9 nM | 13.08 | 247 nM |
| O=C(NCc1cc2nc(-c3cccc(C4CC4)n3)ccc2cn1)c1cc(F)c2c(c1)S(=O)(=O)CCOC2 [Compound 63] | 21.4 nM | 29.53 | 633 nM |
| CO[C@@H](C)CN(C)c1cccc(-c2ccc3cnc(CNC(=O)c4ccc5c(c4)S(=O)(=O)CCOC5)cc3n2)n1 [Compound 64] | 17.5 nM | 19.39 | 340 nM |
| CCO[C@@H]1CCOc2c(-c3ccc4cnc(CNC(=O)c5ccc6c(c5)S(=O)(=O)CCOC6)cc4n3)cccc21 [Compound 65] | 16.2 nM | 6.14 | 99.7 nM |
| CCO[C@H]1CCOc2c(-c3ccc4cnc(CNC(=O)c5ccc6c(c5)S(=O)(=O)CCOC6)cc4n3)cccc21 [Compound 66] | 211 nM | 7.78 | 1640 nM |
| CN[C@H]1CCN(c2cccc(-c3ccc4cnc(CNC(=O)c5ccc6c(c5)S(=O)(=O)CCOC6)cc4n3)n2)CC1(F)F [Compound 67] | 89.4 nM | 6.55 | 586 nM |
| CO[C@H](C)c1cccc(-c2ccc3cnc(CNC(=O)c4ccc5c(c4)S(=O)(=O)CCOC5)cc3n2)n1 [Compound 68] | 433 nM | 11.38 | 4930 nM |
| CO[C@@H](C)c1cccc(-c2ccc3cnc(CNC(=O)c4ccc5c(c4)S(=O)(=O)CCOC5)cc3n2)n1 [Compound 69] | 262 nM | 9.44 | 2470 nM |
| COC[C@H](C)N(C)c1cccc(-c2ccc3cnc(CNC(=O)c4ccc5c(c4)S(=O)(=O)CCOC5)cc3n2)n1 [Compound 70] | 36.8 nM | 11.02 | 406 nM |
| CN(CC1COC1)c1cccc(-c2ccc3cnc(CNC(=O)c4ccc5c(c4)S(=O)(=O)CCOC5)cc3n2)n1 [Compound 71] | 23.9 nM | 11.93 | 285 nM |
| COC[C@@H](C)N(C)c1cccc(-c2ccc3cnc(CNC(=O)c4ccc5c(c4)S(=O)(=O)CCOC5)cc3n2)n1 [Compound 72] | 224 nM | 5.48 | 1230 nM |
| CCN(CCOC)c1cccc(-c2ccc3cnc(CNC(=O)c4ccc5c(c4)S(=O)(=O)CCOC5)cc3n2)n1 [Compound 73] | 6.8 nM | 11.74 | 79.4 nM |
| O=C(NCc1cc2nc(-c3cccc(OC4CC(F)(F)C4)n3)ccc2cn1)c1ccc2c(c1)S(=O)(=O)CCOC2 [Compound 74] | 122 nM | 9.63 | 1180 nM |

| SMILES | IC50 [1] | Ratio* (BRG1 IC50 (μM) divided by BRM IC50 (μM)) [1] | IC50 [2] |
| --- | --- | --- | --- |
| C[C@@H]1CN(c2cccc(-c3ccc4cnc(CNC(=O)c5cc(C6CC6)c6c(c5)S(=O)(=O)CCOC6)cc4n3)n2)C[C@H](C)O1 [Compound 75] | 34.6 nM | 19.65 | 681 nM |
| CS(=O)(=O)c1cc(C(=O)NCc2cc3nc(-c4cccc(N5CC[C@H]6COC[C@H]6C5)n4)ccc3cn2)ccc1Cl [Compound 76] | 45.7 nM | 14.90 | 682 nM |
| CS(=O)(=O)c1cc(C(=O)NCc2cc3nc(-c4cccc(N5CC[C@@H]6COC[C@@H]6C5)n4)ccc3cn2)ccc1Cl [Compound 77] | 77.5 nM | 13.85 | 1070 nM |
| O=C(NCc1cc2nc(-c3cccc(N4CCCOCC4)n3)ccc2cn1)c1ccc2c(c1)S(=O)(=O)CCOC2 [Compound 78] | 19 nM | 10.42 | 198 nM |
| CN(C)[C@@H]1CCN(c2cccc(-c3ccc4cnc(CNC(=O)c5ccc6c(c5)S(=O)(=O)CCOC6)cc4n3)n2)CC1(F)F [Compound 79] | 14.6 nM | 7.89 | 116 nM |
| COCCNc1cccc(-c2ccc3cnc(CNC(=O)c4ccc(C(F)F)c(S(C)(=O)=O)c4)cc3n2)n1 [Compound 80] | 176 nM | 11.75 | 2070 nM |
| CN(C)[C@H]1CCN(c2cccc(-c3ccc4cnc(CNC(=O)c5ccc6c(c5)S(=O)(=O)CCOC6)cc4n3)n2)CC1(F)F [Compound 81] | 275 nM | 6.33 | 1740 nM |
| C[C@@H]1CN(c2cccc(-c3ccc4cnc(CNC(=O)c5cccc(S(C)(=O)=O)c5Cl)cc4n3)n2)C[C@H](C)O1 [Compound 82] | 427 nM | 11.71 | 5000 nM |
| CCN(CC)c1cccc(-c2ccc3cnc(CNC(=O)c4ccc5c(c4)S(=O)(=O)CCOC5)cc3n2)n1 [Compound 83] | 8.1 nM | 16.64 | 135 nM |
| COCCN1CCCc2c(-c3ccc4cnc(CNC(=O)c5ccc6c(c5)S(=O)(=O)CCOC6)cc4n3)cccc21 [Compound 84] | 121 nM | 4.71 | 570 nM |
| Cc1cc2ccc(-c3ccc4cnc(CNC(=O)c5ccc6c(c5)S(=O)(=O)CCOC6)cc4n3)nc2n1C [Compound 85] | 15.7 nM | 8.19 | 129 nM |
| CS(=O)(=O)c1cc(C(=O)NCc2cc3nc(-c4cccc(N5CC[C@@H]6COCC6C5)n4)ccc3cn2)ccc1C(F)F (stereo partly drawn) [Compound 86] | 22.5 nM | 14.43 | 324 nM |
| O=C(NCc1cc2nc(N3CCc4cnccc4C3)ccc2cn1)c1ccc2c(c1)S(=O)(=O)CCOC2 [Compound 87] | 689 nM | 7.14 | 4920 nM |
| COCCN1CCOc2c(-c3ccc4cnc(CNC(=O)c5ccc(Cl)c(S(C)(=O)=O)c5)cc4n3)cccc21 [Compound 88] | 34.2 nM | 15.63 | 535 nM |
| COCCN1CCOc2c(-c3ccc4cnc(CNC(=O)c5ccc(C(F)F)c(S(C)(=O)=O)c5)cc4n3)cccc21 [Compound 89] | 30.8 nM | 21.02 | 648 nM |
| O=C(NCc1cc2nc(N3CCCc4cnccc43)ccc2cn1)c1ccc2c(c1)S(=O)(=O)CCOC2 [Compound 90] | 166 nM | 12.89 | 2140 nM |
